{"source": "patent US10787413B2", "about": "“Derivatives of curcuminoids and use thereof as an anticancer agent” (CHINA MEDICAL UNIVERSITY, priority 2016, dated 2020)", "key": {"[1]": {"test_system": "MDA-MB-231 cells", "assay": "cDNA microarray", "format": "cell-based, human", "method": "The cells were incubated with or without 21a. After exposure, cell pellets were collected, and the total RNA from each treatment was purified using the Qiagen RNeasy Mini Kit (Qiagen, Valencia, Calif., USA). The RNA purity was determined to check the quality at 260/280 nm using a NanoDrop 1000 Spectrophotometer (Thermo Fisher Scientific, Wilmington, Del., USA). mRNA was amplified and labeled using the Gene-Chip WT Sense Target Labeling and Control Reagents kit (Affymetrix, Santa Clara, Calif., USA) for expression analysis. The synthesized cDNA was labeled with fluorescence and then hybridized for 17 h using AffymetrixGeneChip Human Gene 1.0 ST array (Affymetrix) to determine microarray hybridization following the manufacturer's protocols. The arrays were subsequently washed using Fluidics Station 450 (Affymetrix), stained with streptavidin-phycoerythrin (Gene-Chip Hybridization, Wash, and Stain kit, Affymetrix), and scanned on a GeneChip Scanner 3000 (Affymetrix). The localized concentrations of fluorescent molecules were quantitated and analyzed using Expression Console Software (Affymetrix) with default RMA parameters as previously described (Chang et al. 2012; Liu et al. 2013). […]"}, "[2]": {"test_system": "MDA-MB-231 Xenograft", "assay": "In vivo antitumor activity, MDA-MB-231 Xenograft nude mice model", "method": "Female nu/nu mice (5 weeks old) were from National Laboratory Animal Center, Taipei, Taiwan. Mice were maintained under the procedures and guidelines from the Institutional Animal Care and Use Committee of the National Health Research Institutes, Taipei, Taiwan. All experiments were supervised under the Institutional Animal Care and Use Committee, China Medical University, Taichung, Taiwan. MDA-MB-231 breast cancer cells (5×10^6 cells per mouse) were suspended in 0.1 ml of Matrigel solution (50% (v/v) Matrigel in PBS) and inoculated into the mammary fat pads of the mice. […] Compounds was administered P.O. once every day for 32 days. Tumor size and mouse body weight were measured once every 4 days, and tumor volume (mm3) was calculated using the equation: length×(width)^2×0.5. At the end of experiments, mice were sacrificed and tumor nodules were dissected and weighed."}, "[3]": {"test_system": "MDA-MB-231 cells", "assay": "Cell cycle distribution analysis (PI, flow cytometry)", "format": "cell-based, human", "conditions": "5 μM, 24 h", "method": "For cell cycle and sub-G1 (apoptosis) determinations, the harvested cells were fixed gently by putting 70% ethanol in 4° C. overnight and then re-suspended in PBS containing 40 μg/ml PI and 0.1 mg/ml RNase and 0.1% Triton X-100 in dark room for 30 min at 37° C. Those cells were analyzed with a flow cytometer equipped with an argon ion laser at 488 nm wavelength^22."}}, "data": [{"smiles": "COc1cc(/C=C/C(=O)/C=C(O)/C=C/c2ccc(OC(=O)C(C)(CO)CO)c(OC)c2)ccc1OC(=O)C(C)(CO)CO", "note": "[Compound 21a, ((1E,3Z,6E)-3-Hydroxy-5-oxohepta-1,3,6-triene-1,7-diyl)bis(2-methoxy-4,1-phenylene) bis(3-hydroxy-2-(hydroxymethyl)-2-methylpropenoate)]", "values": [{"measurement": "log2 (Ratio) ABL2", "setting": "[1]; mRNA, MDA-MB-231 cells, 24-h treatment, ID PH_hs_0027902", "result": 4.287}, {"measurement": "log2 (Ratio) CENPI", "setting": "[1]; mRNA, MDA-MB-231 cells, 24-h treatment, ID PH_hs_0028200", "result": "−2.537"}, {"measurement": "log2 (Ratio) CCDC85B", "setting": "[1]; mRNA, MDA-MB-231 cells, 24-h treatment, ID PH_hs_0028915", "result": "−2.622"}, {"measurement": "log2 (Ratio) TCF21", "setting": "[1]; mRNA, MDA-MB-231 cells, 24-h treatment, ID PH_hs_0028987", "result": 2.769}, {"measurement": "log2 (Ratio) AKR1C1", "setting": "[1]; mRNA, MDA-MB-231 cells, 24-h treatment, ID PH_hs_0029660", "result": 2.695}, {"measurement": "log2 (Ratio) FANCF", "setting": "[1]; mRNA, MDA-MB-231 cells, 24-h treatment, ID PH_hs_0030800", "result": "−2.553"}, {"measurement": "log2 (Ratio) NFKBIB", "setting": "[1]; mRNA, MDA-MB-231 cells, 24-h treatment, ID PH_hs_0030976", "result": 2.516}, {"measurement": "log2 (Ratio) VIMP", "setting": "[1]; mRNA, MDA-MB-231 cells, 24-h treatment, ID PH_hs_0031143", "result": 3.213}, {"measurement": "log2 (Ratio) GNG2", "setting": "[1]; mRNA, MDA-MB-231 cells, 24-h treatment, ID PH_hs_0031540", "result": "−2.661"}, {"measurement": "log2 (Ratio) CCL26", "setting": "[1]; mRNA, MDA-MB-231 cells, 24-h treatment, ID PH_hs_0031719", "result": 4.147}, {"measurement": "log2 (Ratio) SIK1", "setting": "[1]; mRNA, MDA-MB-231 cells, 24-h treatment, ID PH_hs_0033027", "result": 2.548}, {"measurement": "log2 (Ratio) DDIT3", "setting": "[1]; mRNA, MDA-MB-231 cells, 24-h treatment, ID PH_hs_0033101", "result": 3.556}, {"measurement": "log2 (Ratio) OMA1", "setting": "[1]; mRNA, MDA-MB-231 cells, 24-h treatment, ID PH_hs_0035337", "result": "−2.514"}, {"measurement": "log2 (Ratio) SAT1", "setting": "[1]; mRNA, MDA-MB-231 cells, 24-h treatment, ID PH_hs_0035404", "result": 3.764}, {"measurement": "log2 (Ratio) AKR1C3|AKR1C1", "setting": "[1]; mRNA, MDA-MB-231 cells, 24-h treatment, ID PH_hs_0035466", "result": 2.962}, {"measurement": "log2 (Ratio) ETV1", "setting": "[1]; mRNA, MDA-MB-231 cells, 24-h treatment, ID PH_hs_0035609", "result": "−2.788"}, {"measurement": "log2 (Ratio) RC3H1", "setting": "[1]; mRNA, MDA-MB-231 cells, 24-h treatment, ID PH_hs_0035614", "result": 3.063}, {"measurement": "log2 (Ratio) GDF15", "setting": "[1]; mRNA, MDA-MB-231 cells, 24-h treatment, ID PH_hs_0035765", "result": 3.427}, {"measurement": "log2 (Ratio) PIF1", "setting": "[1]; mRNA, MDA-MB-231 cells, 24-h treatment, ID PH_hs_0036878", "result": "−2.714"}, {"measurement": "log2 (Ratio) MALAT1", "setting": "[1]; mRNA, MDA-MB-231 cells, 24-h treatment, ID PH_hs_0037242", "result": 2.683}, {"measurement": "log2 (Ratio) MALAT1", "setting": "[1]; mRNA, MDA-MB-231 cells, 24-h treatment, ID PH_hs_0037472", "result": 3.48}, {"measurement": "log2 (Ratio) LOC100134259", "setting": "[1]; mRNA, MDA-MB-231 cells, 24-h treatment, ID PH_hs_0038982", "result": "−2.503"}, {"measurement": "log2 (Ratio) MXD3", "setting": "[1]; mRNA, MDA-MB-231 cells, 24-h treatment, ID PH_hs_0040619", "result": "−2.891"}, {"measurement": "log2 (Ratio) DUSP5", "setting": "[1]; mRNA, MDA-MB-231 cells, 24-h treatment, ID PH_hs_0042225", "result": 2.541}, {"measurement": "log2 (Ratio) MT4", "setting": "[1]; mRNA, MDA-MB-231 cells, 24-h treatment, ID PH_hs_0042334", "result": 3.931}, {"measurement": "log2 (Ratio) DNAJB1", "setting": "[1]; mRNA, MDA-MB-231 cells, 24-h treatment, ID PH_hs_0042409", "result": 2.767}, {"measurement": "log2 (Ratio) HMGCS1", "setting": "[1]; mRNA, MDA-MB-231 cells, 24-h treatment, ID PH_hs_0043719", "result": 2.895}, {"measurement": "log2 (Ratio) CLK1", "setting": "[1]; mRNA, MDA-MB-231 cells, 24-h treatment, ID PH_hs_0044272", "result": 2.829}, {"measurement": "log2 (Ratio) HSPA1A", "setting": "[1]; mRNA, MDA-MB-231 cells, 24-h treatment, ID PH_hs_0044921", "result": 2.535}, {"measurement": "log2 (Ratio) EID3", "setting": "[1]; mRNA, MDA-MB-231 cells, 24-h treatment, ID PH_hs_0045501", "result": 4.039}, {"measurement": "log2 (Ratio) SLC6A6", "setting": "[1]; mRNA, MDA-MB-231 cells, 24-h treatment, ID PH_hs_0045838", "result": 2.838}, {"measurement": "log2 (Ratio) RN7SK", "setting": "[1]; mRNA, MDA-MB-231 cells, 24-h treatment, ID PH_hs_0046245", "result": 4.763}, {"measurement": "log2 (Ratio) MARCKS", "setting": "[1]; mRNA, MDA-MB-231 cells, 24-h treatment, ID PH_hs_0047352", "result": "−3.043"}, {"measurement": "log2 (Ratio) PDP1", "setting": "[1]; mRNA, MDA-MB-231 cells, 24-h treatment, ID PH_hs_0047571", "result": "−2.547"}, {"measurement": "log2 (Ratio) ARF6", "setting": "[1]; mRNA, MDA-MB-231 cells, 24-h treatment, ID PH_hs_0047697", "result": "−2.688"}, {"measurement": "log2 (Ratio) PHLDA1", "setting": "[1]; mRNA, MDA-MB-231 cells, 24-h treatment, ID PH_hs_0047965", "result": "−2.959"}, {"measurement": "log2 (Ratio) MYCT1", "setting": "[1]; mRNA, MDA-MB-231 cells, 24-h treatment, ID PH_hs_0048553", "result": 3.866}, {"measurement": "log2 (Ratio) FKBP4", "setting": "[1]; mRNA, MDA-MB-231 cells, 24-h treatment, ID PH_hs_0048881", "result": 2.809}, {"measurement": "log2 (Ratio) NRP1", "setting": "[1]; mRNA, MDA-MB-231 cells, 24-h treatment, ID PH_hs_0048993", "result": "−2.677"}, {"measurement": "log2 (Ratio) GPR39", "setting": "[1]; mRNA, MDA-MB-231 cells, 24-h treatment, ID PH_hs_0049449", "result": "−2.73"}, {"measurement": "log2 (Ratio) HSPA6", "setting": "[1]; mRNA, MDA-MB-231 cells, 24-h treatment, ID PH_hs_0049600", "result": 6.644}, {"measurement": "log2 (Ratio) ZNF121", "setting": "[1]; mRNA, MDA-MB-231 cells, 24-h treatment, ID PH_hs_0060053", "result": 2.575}, {"measurement": "log2 (Ratio) TRIB3", "setting": "[1]; mRNA, MDA-MB-231 cells, 24-h treatment, ID PH_hs_0060828", "result": 2.735}, {"measurement": "log2 (Ratio) ZBTB21", "setting": "[1]; mRNA, MDA-MB-231 cells, 24-h treatment, ID PH_hs_0061012", "result": 2.731}, {"measurement": "log2 (Ratio) AKR1C1|LOC101060798", "setting": "[1]; mRNA, MDA-MB-231 cells, 24-h treatment, ID PH_hs_0062199", "result": 3.357}, {"measurement": "log2 (Ratio) CDKN1A", "setting": "[1]; mRNA, MDA-MB-231 cells, 24-h treatment, ID PH_hs_p061784", "result": 2.967}, {"measurement": "genes expressed at least by 2.5 folds compared with untreated control", "setting": "[1]; total", "result": 97, "unit": "genes"}, {"measurement": "antitumor activity, fold more potent than curcumin", "setting": "[2]; MDA-MB-231 Xenograft nude mice model", "result": 10, "unit": "fold"}, {"measurement": "antitumor activity", "setting": "[2]; PO 5 mg/kg/day", "result": "significant antitumor activity"}, {"measurement": "inhibitory efficacy", "setting": "[2]; PO 10 mg/kg/day", "result": "equivalent to 100 mg/kg/day of curcumin"}, {"measurement": "tumor weight lighter than that of the control group", "setting": "[2]; PO 50 mg/kg/day", "result": 60, "unit": "%"}, {"measurement": "inhibition of MDA-MB-231 tumor growth", "setting": "[2]; PO 5, 10, 25 and 50 mg/kg/day", "result": "dose- and time-dependent inhibition"}, {"measurement": "body weight, behavior change and blood chemistry (serology detection)", "setting": "[2]; treated vs untreated control group during antitumor evaluation", "result": "no significant difference"}, {"measurement": "G2/M cell population", "setting": "[3]", "result": "significantly increased"}]}]}
